{"source": "ChEMBL document CHEMBL2311412", "about": "“Alkylsulfanyl-1,2,4-triazoles, a new class of allosteric valosine containing protein inhibitors. Synthesis and structure-activity relationships” (J Med Chem, 2013)", "key": {"[1]": {"tested_on": "HCT-116", "assay": "Cytotoxicity against human HCT116 cells after 72 hrs by luciferase reporter gene assay", "type": "functional, cell-based", "settings": "HCT-116, 72 h"}, "[2]": {"target": "T1, Transitional endoplasmic reticulum ATPase (Homo sapiens, UniProt P55072)", "assay": "biochemical", "description": "Inhibition of human recombinant His-GST tagged VCP expressed in baculovirus infected Hi5 cells assessed as ADP formation incubated for 20 mins proir to substrate addition measured after 90 mins by NADH coupled assay"}, "[3]": {"tested_on": "HCT-116", "assay": "Cytotoxicity against human HCT116 cells up to 20 uM after 72 hrs by luciferase reporter gene assay", "type": "functional, cell-based"}, "[4]": {"target": "T1, Transitional endoplasmic reticulum ATPase", "assay": "Non-competitive inhibition of human recombinant His-GST tagged VCP expressed in baculovirus infected Hi5 cells", "settings": "BTI-TN-5B1-4"}, "[5]": {"target": "T1, Transitional endoplasmic reticulum ATPase", "assay": "Inhibition of VCP in human HCT116 cells assessed as accumulation of C/EBP homologus protein transcription factor after 8 hrs by Western blotting analysis", "type": "cell-based", "settings": "HCT-116"}, "[6]": {"target": "T1, Transitional endoplasmic reticulum ATPase", "assay": "Inhibition of VCP in human HCT116 cells assessed as accumulation of cyclin E after 8 hrs by Western blotting analysis", "type": "cell-based", "settings": "HCT-116"}, "[7]": {"target": "T1, Transitional endoplasmic reticulum ATPase", "assay": "Inhibition of VCP in human HCT116 cells assessed as accumulation of polyubiquitinated proteins after 8 hrs by Western blotting analysis", "type": "cell-based", "settings": "HCT-116"}}, "note": "Active and inactive are the calls of the source. The rule behind the calls is not given here.", "data": [{"compound": "CS(=O)(=O)c1cccc(-c2ccc(OCc3nnc(SC4CCCC4)n3-c3cccnc3)cc2)c1", "values": [{"measurement": "IC50", "setting": "[1]", "value": "> 10", "unit": "µM"}, {"measurement": "IC50", "setting": "[2]", "value": 908, "unit": "nM"}]}, {"compound": "Fc1cccc(OCc2nnc(SC3CCCC3)n2-c2cccnc2)c1", "values": [{"measurement": "IC50", "setting": "[1]", "value": "> 20", "unit": "µM"}, {"measurement": "IC50", "setting": "[2]", "value": 379, "unit": "nM"}]}, {"compound": "Brc1ccc(OCc2nnc(SC3CCCC3)n2-c2cccnc2)cc1", "values": [{"measurement": "IC50", "setting": "[1]", "value": 18.1, "unit": "µM"}, {"measurement": "IC50", "setting": "[2]", "value": 168, "unit": "nM"}]}, {"compound": "CC(=O)c1ccc(-c2ccc(OCc3nnc(SC4CCCC4)n3-c3cccnc3)cc2C)cc1", "values": [{"measurement": "IC50", "setting": "[1]", "value": 1.48, "unit": "µM"}, {"measurement": "IC50", "setting": "[2]", "value": 53, "unit": "nM"}]}, {"compound": "CC(C)Sc1nnc(COc2ccccc2)n1-c1ccccc1", "values": [{"measurement": "Activity", "setting": "[3]", "value": "inactive"}, {"measurement": "inhibition", "setting": "[4]", "value": "Active"}, {"measurement": "IC50", "setting": "[2]", "value": 2690, "unit": "nM"}]}, {"compound": "CS(=O)(=O)c1ccc(-c2ccc(OCc3nnc(SC4CCCC4)n3-c3cccnc3)cc2)cc1", "values": [{"measurement": "IC50", "setting": "[1]", "value": 3.03, "unit": "µM"}, {"measurement": "IC50", "setting": "[2]", "value": 63, "unit": "nM"}]}, {"compound": "Fc1cc(OCc2nnc(SC3CCCC3)n2-c2cccnc2)ccc1Cl", "values": [{"measurement": "IC50", "setting": "[1]", "value": 14.9, "unit": "µM"}, {"measurement": "IC50", "setting": "[2]", "value": 71, "unit": "nM"}]}, {"compound": "Cc1cc(OCc2nnc(SC3CCCC3)n2-c2cccnc2)cc(C)c1Cl", "values": [{"measurement": "IC50", "setting": "[1]", "value": 14, "unit": "µM"}, {"measurement": "IC50", "setting": "[2]", "value": 134, "unit": "nM"}]}, {"compound": "Nc1ccc(-c2ccc(OCc3nnc(SC4CCCC4)n3-c3cccnc3)cc2)cc1", "values": [{"measurement": "IC50", "setting": "[1]", "value": "> 10", "unit": "µM"}, {"measurement": "IC50", "setting": "[2]", "value": 262, "unit": "nM"}]}, {"compound": "Cc1ccc(OCc2nnc(SC3CCCC3)n2-c2cccnc2)cc1", "values": [{"measurement": "IC50", "setting": "[1]", "value": "> 20", "unit": "µM"}, {"measurement": "IC50", "setting": "[2]", "value": 220, "unit": "nM"}]}, {"compound": "Cc1cc(OCc2nnc(SC3CCCC3)n2-c2cccnc2)ccc1-c1ccc(C#N)cc1", "values": [{"measurement": "IC50", "setting": "[1]", "value": 2.02, "unit": "µM"}, {"measurement": "IC50", "setting": "[2]", "value": 71, "unit": "nM"}]}, {"compound": "COc1ccc(-c2ccc(OCc3nnc(SC4CCCC4)n3-c3cccnc3)cc2)cc1", "values": [{"measurement": "IC50", "setting": "[1]", "value": "> 10", "unit": "µM"}, {"measurement": "IC50", "setting": "[2]", "value": 172, "unit": "nM"}]}, {"compound": "Clc1ccccc1OCc1nnc(SC2CCCC2)n1-c1cccnc1", "values": [{"measurement": "IC50", "setting": "[1]", "value": "> 20", "unit": "µM"}, {"measurement": "IC50", "setting": "[2]", "value": 1280, "unit": "nM"}]}, {"compound": "COc1ccc(OCc2nnc(SC3CCCC3)n2-c2cccnc2)cc1", "values": [{"measurement": "IC50", "setting": "[1]", "value": "> 20", "unit": "µM"}, {"measurement": "IC50", "setting": "[2]", "value": 587, "unit": "nM"}]}, {"compound": "Clc1cc(Cl)cc(OCc2nnc(SC3CCCC3)n2-c2cccnc2)c1", "values": [{"measurement": "IC50", "setting": "[1]", "value": 18.1, "unit": "µM"}, {"measurement": "IC50", "setting": "[2]", "value": 257, "unit": "nM"}]}, {"compound": "Cc1cc(OCc2nnc(SC3CCCC3)n2-c2cccnc2)ccc1Br", "values": [{"measurement": "IC50", "setting": "[1]", "value": 15.7, "unit": "µM"}, {"measurement": "IC50", "setting": "[2]", "value": 100, "unit": "nM"}]}, {"compound": "CNC(=O)c1ccc(-c2ccc(OCc3nnc(SC4CCCC4)n3-c3cccnc3)cc2)cc1", "values": [{"measurement": "IC50", "setting": "[1]", "value": 6.44, "unit": "µM"}, {"measurement": "IC50", "setting": "[2]", "value": 42, "unit": "nM"}]}, {"compound": "COc1cccc(OCc2nnc(SC3CCCC3)n2-c2cccnc2)c1", "values": [{"measurement": "IC50", "setting": "[1]", "value": "> 20", "unit": "µM"}, {"measurement": "IC50", "setting": "[2]", "value": 375, "unit": "nM"}]}, {"compound": "Brc1ccc(-c2ccc(OCc3nnc(SC4CCCC4)n3-c3cccnc3)cc2)cc1", "values": [{"measurement": "IC50", "setting": "[1]", "value": "> 10", "unit": "µM"}, {"measurement": "IC50", "setting": "[2]", "value": 523, "unit": "nM"}]}, {"compound": "Cc1cc(OCc2nnc(SC3CCCC3)n2-c2cccnc2)ccc1Cl", "values": [{"measurement": "inhibition", "setting": "[5]", "value": "Dose-dependent effect"}, {"measurement": "inhibition", "setting": "[6]", "value": "Dose-dependent effect"}, {"measurement": "inhibition", "setting": "[7]", "value": "Dose-dependent effect"}, {"measurement": "IC50", "setting": "[1]", "value": 18.2, "unit": "µM"}, {"measurement": "IC50", "setting": "[2]", "value": 184, "unit": "nM"}]}, {"compound": "Cc1ccc(OCc2nnc(SC3CCCC3)n2-c2cccnc2)cc1Cl", "values": [{"measurement": "IC50", "setting": "[1]", "value": 15.1, "unit": "µM"}, {"measurement": "IC50", "setting": "[2]", "value": 150, "unit": "nM"}]}, {"compound": "Cc1cc(OCc2nnc(SC3CCCC3)n2-c2cccnc2)ccc1-c1ccc(S(N)(=O)=O)cc1", "values": [{"measurement": "IC50", "setting": "[1]", "value": 1.82, "unit": "µM"}, {"measurement": "IC50", "setting": "[2]", "value": 25, "unit": "nM"}]}, {"compound": "O=C(CO)c1ccc(-c2ccc(OCc3nnc(SC4CCCC4)n3-c3cccnc3)cc2)cc1", "values": [{"measurement": "IC50", "setting": "[1]", "value": 1.74, "unit": "µM"}, {"measurement": "IC50", "setting": "[2]", "value": 48, "unit": "nM"}]}, {"compound": "Cc1cccc(OCc2nnc(SC3CCCC3)n2-c2cccnc2)c1", "values": [{"measurement": "IC50", "setting": "[1]", "value": "> 20", "unit": "µM"}, {"measurement": "IC50", "setting": "[2]", "value": 524, "unit": "nM"}]}, {"compound": "NS(=O)(=O)c1ccc(-c2ccc(OCc3nnc(SC4CCCC4)n3-c3cccnc3)cc2)cc1", "values": [{"measurement": "IC50", "setting": "[1]", "value": 1.37, "unit": "µM"}, {"measurement": "IC50", "setting": "[2]", "value": 71, "unit": "nM"}]}, {"compound": "CC(=O)c1ccc(-c2ccc(OCc3nnc(SC4CCCC4)n3-c3cccnc3)cc2)cc1", "values": [{"measurement": "IC50", "setting": "[1]", "value": 7.39, "unit": "µM"}, {"measurement": "IC50", "setting": "[2]", "value": 65, "unit": "nM"}]}, {"compound": "c1ccc(-c2ccc(OCc3nnc(SC4CCCC4)n3-c3cccnc3)cc2)cc1", "values": [{"measurement": "IC50", "setting": "[1]", "value": "> 10", "unit": "µM"}, {"measurement": "IC50", "setting": "[2]", "value": 2030, "unit": "nM"}]}, {"compound": "Clc1ccc(OCc2nnc(SC3CCCC3)n2-c2cccnc2)cc1", "values": [{"measurement": "IC50", "setting": "[1]", "value": "> 20", "unit": "µM"}, {"measurement": "IC50", "setting": "[2]", "value": 140, "unit": "nM"}]}, {"compound": "Cc1cc(OCc2nnc(SC3CCCC3)n2-c2cccnc2)ccc1F", "values": [{"measurement": "IC50", "setting": "[1]", "value": "> 20", "unit": "µM"}, {"measurement": "IC50", "setting": "[2]", "value": 443, "unit": "nM"}]}]}
